24 compounds from patent publication US7671084B2 (Wyeth, priority 2004, dated 2010) can be followed below.

Molecules are shown by their SMILES.

One series addresses T1, human ERβ (Homo sapiens, UniProt Q92731).
T1 construct: made in house; host or cells: E. coli (crude lysate)
Kind of series: Competition with [3H]-17β-estradiol for binding to ERβ. Particulars: ligand binding domain of human ERβ in E. coli crude lysate, 2 nM [3H]-17β-estradiol, 5-15 hours at room temperature. The method, then:
Representative examples of the invention were evaluated for their ability to compete with 17β-estradiol for both ERα and ERβ. This test procedure provides the methodology for one to determine whether a particular compound binds to the estrogen receptor (and is therefore “estrogenic”) and whether there is selectivity for ERα or ERβ. […] 17β-estradiol is included as a standard reference for comparison. The procedure used is briefly described below. A crude lysate of E. coli expressing the estrogen receptor ligand binding domains (D, E, & F) of human ERα or ERβ was prepared. Both receptors and compounds were diluted in 1× Dulbecco's PBS (DPBS) supplemented with 1 mM EDTA. Using a high binding masked microtiter plate, 100 uL of receptor (1 uG/well) was combined with 2 nm [^3H]-17β-estradiol and various concentrations of compound. After between 5 and 15 hours at room temperature, the plates were washed with DPBS/1 mM EDTA and bound radioactivity determined by liquid scintillation counting. The IC50 is defined as the concentration of compound that decreases total 17β-estradiol binding by 50%.

The next series deals with T2, human ERα (Homo sapiens, UniProt P03372).
T2 construct: made in house; host or cells: E. coli (crude lysate)
T2 sequence (P03372 311-547 limits assumed): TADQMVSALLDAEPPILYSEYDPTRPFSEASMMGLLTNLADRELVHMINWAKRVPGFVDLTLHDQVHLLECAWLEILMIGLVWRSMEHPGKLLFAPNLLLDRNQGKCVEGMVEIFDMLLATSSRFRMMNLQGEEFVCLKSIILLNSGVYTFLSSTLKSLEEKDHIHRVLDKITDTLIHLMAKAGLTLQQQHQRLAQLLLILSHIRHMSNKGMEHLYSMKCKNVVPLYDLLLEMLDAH
Kind of series: Competition with [3H]-17β-estradiol for binding to ERα. Particulars: ligand binding domain of human ERα in E. coli crude lysate, 2 nM [3H]-17β-estradiol, 5-15 hours at room temperature; read-out: ERα (nM) IC50. Here is the method: Representative examples of the invention were evaluated for their ability to compete with 17β-estradiol for both ERα and ERβ. This test procedure provides the methodology for one to determine whether a particular compound binds to the estrogen receptor (and is therefore “estrogenic”) and whether there is selectivity for ERα or ERβ. The values are shown in the Table infra and are reported as IC50s. 17β-estradiol is included as a standard reference for comparison. The procedure used is briefly described below. A crude lysate of E. coli expressing the estrogen receptor ligand binding domains (D, E, & F) of human ERα or ERβ was prepared. Both receptors and compounds were diluted in 1× Dulbecco's PBS (DPBS) supplemented with 1 mM EDTA. Using a high binding masked microtiter plate, 100 uL of receptor (1 uG/well) was combined with 2 nm [^3H]-17β-estradiol and various concentrations of compound. After between 5 and 15 hours at room temperature, the plates were washed with DPBS/1 mM EDTA and bound radioactivity determined by liquid scintillation counting. The IC50 is defined as the concentration of compound that decreases total 17β-estradiol binding by 50%.

T1 sequence (Q92731 264-498 limits assumed): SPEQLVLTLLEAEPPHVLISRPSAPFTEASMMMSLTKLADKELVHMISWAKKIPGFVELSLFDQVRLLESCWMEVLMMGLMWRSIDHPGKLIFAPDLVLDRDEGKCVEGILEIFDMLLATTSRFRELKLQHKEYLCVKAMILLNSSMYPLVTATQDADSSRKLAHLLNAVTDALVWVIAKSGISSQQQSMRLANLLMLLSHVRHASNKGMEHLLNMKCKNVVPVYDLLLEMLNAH

For `COc1cccc(-c2c3c(cc4ccc(O)cc24)-c2ccc(O)cc2CO3)c1` [Example 34, 7-(3-Methoxyphenyl)-5H-dibenzo[c,g]chromene-3,9-diol], the melting point (in general, the temperature, or range, at which the solid turns liquid) is 220 to 223 °C. The IC50 (as a rule, the concentration that gives 50% inhibition) at human ERβ was 17 nM. The IC50 on human ERα turned out to be 434 nM.

On to `Oc1ccc2c(c1)COc1c-2cc2ccc(O)cc2c1-c1ccccc1Cl` [Example 35, 7-(2-Chlorophenyl)-5H-dibenzo[c,g]chromene-3,9-diol], for which the melting point lay within 220 to 222 °C. The compound also came in with an IC50 at human ERβ of 9.7 nM. On human ERα, the IC50 was found to be 26 nM.

As for `Oc1ccc2c(c1)COc1c-2cc2ccc(O)cc2c1-c1ccc(F)c(F)c1` [Example 36, 7-(3,4-Difluorophenyl)-5H-dibenzo[c,g]chromene-3,9-diol], the melting point lay within 235 to 237 °C. At human ERβ, the IC50 was found to be 6.2 nM. Besides, on human ERα, the IC50 is 206 nM.

`Oc1ccc2c(c1)COc1c-2cc2ccc(O)cc2c1-c1ccccc1F` [Example 38, 7-(2-Fluorophenyl)-5H-dibenzo[c,g]chromene-3,9-diol] yielded a melting point of 240 to 242 °C. Further, the IC50 at human ERβ worked out at 1.4 nM. For the same compound, on human ERα, the IC50 was 73 nM.

For the compound `Cc1ccc(-c2c3c(cc4ccc(O)cc24)-c2ccc(O)cc2CO3)cc1C` [Example 39, 7-(3,4-Dimethylphenyl)-5H-dibenzo[c,g]chromene-3,9-diol], the melting point lay in the range of 218 to 221 °C. Further, the IC50 at human ERβ turned out to be 22 nM. Also, the IC50 at human ERα amounted to 608 nM.

Turning to `N#Cc1ccc(-c2c3c(cc4ccc(O)cc24)-c2ccc(O)cc2CO3)cc1` [Example 40, 7-(4-Cyanophenyl)-5H-dibenzo[c,g]chromene-3,9-diol], the melting point is over 250 °C. Further, on human ERβ, the IC50 was 9.2 nM. Moreover, the IC50 at human ERα worked out at 162 nM.

On to `Cc1ccc(-c2c3c(cc4ccc(O)cc24)-c2ccc(O)cc2CO3)cc1F` [Example 41, 7-(3-Fluoro-4-Methylphenyl)-5H-dibenzo[c,g]chromene-3,9-diol], for which the melting point is 238 to 240 °C. The IC50 at human ERβ was 28 nM. In addition, the IC50 at human ERα amounted to 655 nM.

Turning to `COc1ccc(-c2c3c(cc4ccc(O)cc24)-c2ccc(O)cc2CO3)cc1OC` [Example 42, 7-(3,4-Dimethoxyphenyl)-5H-dibenzo[c,g]chromene-3,9-diol], the melting point lay in the range of 245 to 248 °C. The same compound registered an IC50 on human ERβ of 22 nM. The IC50 at human ERα stood at 1820 nM.

For the compound `Oc1ccc2c(c1)COc1c-2cc2ccc(O)cc2c1-c1cccc(C(F)(F)F)c1` [Example 43, 7-(3-Trifluoromethylphenyl)-5H-dibenzo[c,g]chromene-3,9-diol], the melting point fell in the range of 228 to 231 °C. The compound also gave an IC50 at human ERβ of 10 nM. The 50% inhibitory concentration (IC50) at human ERα came to 263 nM.

As for `Oc1ccc2c(c1)COc1c-2cc2ccc(O)cc2c1-c1cc(F)cc(F)c1` [Example 44, 7-(3,5-Difluorophenyl)-5H-dibenzo[c,g]chromene-3,9-diol], the melting point is 238 to 240 °C. This compound came in with an IC50 on human ERβ of 10 nM. For the same compound, the IC50 on human ERα is 70 nM.

Consider `Oc1ccc2c(c1)COc1c-2cc2ccc(O)cc2c1-c1cc(Cl)cc(Cl)c1` [Example 45, 7-(3,5-Dichlorophenyl)-5H-dibenzo[c,g]chromene-3,9-diol], for which the melting point fell in the range of 252 to 255 °C. The IC50 on human ERβ came out at 34 nM. Moreover, the IC50 on human ERα stood at 151 nM.

Compound `Cc1cc(-c2c3c(cc4ccc(O)cc24)-c2ccc(O)cc2CO3)ccc1F` [Example 46, 7-(3-Methyl-4-Fluorophenyl)-5H-dibenzo[c,g]chromene-3,9-diol] gave a melting point of 185 to 188 °C. The compound also had an IC50 on human ERβ of 39 nM. The IC50 at human ERα amounted to 709 nM.

In turn, `Oc1ccc2c(c1)COc1c-2cc2ccc(O)cc2c1-c1ccoc1` [Example 47, 7-(3-Furyl)-5H-dibenzo[c,g]chromene-3,9-diol] showed a melting point of 216 to 218 °C. Moreover, at human ERβ, the IC50 is 2 nM. The IC50 at human ERα amounted to 76 nM.

In the case of `Oc1ccc2c(c1)COc1c-2cc2ccc(O)cc2c1-c1ccco1` [Example 48, 7-(2-Furyl)-5H-dibenzo[c,g]chromene-3,9-diol], the melting point was in the range of 158 to 163 °C. The same compound gave an IC50 at human ERβ of 3.5 nM. Moreover, the IC50 on human ERα was determined as 146 nM.

In turn, `CCCCc1c2c(cc3ccc(O)cc13)-c1ccc(O)cc1CO2` [Example 49, 7-Butyl-5H-dibenzo[c,g]chromene-3,9-diol] gave a melting point of 187 to 189 °C. Further, the IC50 on human ERβ came to 0.8 nM. The IC50 at human ERα stood at 4 nM.

Regarding `Oc1ccc2c(c1)COc1c-2cc2ccc(O)cc2c1-c1cccnc1` [Example 50, 7-(3-Pyridinyl)-5H-dibenzo[c,g]chromene-3,9-diol], the melting point is over 250 °C. This compound returned an IC50 on human ERβ of 14 nM. Also, on human ERα, the IC50 is 1360 nM.

The compound `COc1cncc(-c2c3c(cc4ccc(O)cc24)-c2ccc(O)cc2CO3)c1` [Example 53, 7-(5-Methoxy-3-Pyridyl)-5H-dibenzo[c,g]chromene-3,9-diol] gave a melting point of over 250 °C. The same compound yielded a half-inhibitory concentration (IC50) at human ERβ of 34 nM. At human ERα, the IC50 amounted to 2420 nM.

For the compound `Oc1ccc2c(c1)COc1c-2cc2ccc(O)cc2c1-c1ccccn1` [Example 54, 7-(2-Pyridyl)-5H-dibenzo[c,g]chromene-3,9-diol], the melting point was over 220 °C. On human ERβ, this compound displayed an IC50 of 108 nM. Also, the IC50 on human ERα is over 5000 nM.

Consider `CSc1ccc(-c2c3c(cc4ccc(O)cc24)-c2ccc(O)cc2CO3)cc1` [Example 56, 7-(4-Methylthiophenyl)-5H-dibenzo[c,g]chromene-3,9-diol], for which the melting point was 195 to 198 °C. Also, the IC50 on human ERβ amounted to 142 nM. In addition, the IC50 on human ERα came to 804 nM.

`N#CCc1ccc(-c2c3c(cc4ccc(O)cc24)-c2ccc(O)cc2CO3)cc1` [Example 57, 7-(4-Cyanomethylphenyl)-5H-dibenzo[c,g]chromene-3,9-diol] came in with a melting point of 240 to 242 °C. The same compound had an IC50 on human ERβ of 71 nM. For the same compound, the IC50 on human ERα came to 358 nM.

In turn, `Oc1ccc2c(c1)COc1c-2cc2ccc(O)cc2c1-c1cccc(OC(F)(F)F)c1` [Example 58, 7-(3-Trifluoromethoxyphenyl)-5H-dibenzo[c,g]chromene-3,9-diol] registered a melting point of 110 to 112 °C. At human ERβ, the IC50 turned out to be 40 nM. The half-inhibitory concentration (IC50) on human ERα came to 661 nM.

As to `Oc1ccc2c(c1)COc1c-2cc2ccc(O)cc2c1-c1ccc(OC(F)(F)F)cc1` [Example 59, 7-(4-Trifluoromethoxyphenyl)-5H-dibenzo[c,g]chromene-3,9-diol], the melting point was in the range of 245 to 248 °C. This compound also came in with a half-maximal inhibitory concentration (IC50) at human ERβ of 34 nM. On human ERα, the concentration for half-maximal inhibition (IC50) worked out at 1220 nM.

`CC(C)(C)c1ccc(-c2c3c(cc4ccc(O)cc24)-c2ccc(O)cc2CO3)cc1` [Example 60, 7-(4-tert-Butylphenyl)-5H-dibenzo[c,g]chromene-3,9-diol] showed a melting point of 162 to 165 °C. At human ERβ, this compound displayed an IC50 of 320 nM. Also, the IC50 on human ERα worked out at 3480 nM.

`CCc1ccc(-c2c3c(cc4ccc(O)cc24)-c2ccc(O)cc2CO3)cc1` [Example 62, 7-(4-Ethylphenyl)-5H-dibenzo[c,g]chromene-3,9-diol] registered a melting point of 203 to 205 °C. Further, the 50% inhibitory concentration (IC50) on human ERβ worked out at 26 nM. For the same compound, on human ERα, the IC50 is 892 nM.
